Assay results reported in article PMC2649430 (Neuropharmacology, 2008).
Changes are numbered by the printed parent chain. Where two headings read alike, the source gives them in different places.

How the values were obtained:
[1] = molecular target: T1, E277A/S297R mutant 5-HT3 receptor (Mus musculus, UniProt P23979, E277A/S297R); format: cell-based; settings: no added MgCl2
T1 sequence (P23979 24-489 E277A/S297R): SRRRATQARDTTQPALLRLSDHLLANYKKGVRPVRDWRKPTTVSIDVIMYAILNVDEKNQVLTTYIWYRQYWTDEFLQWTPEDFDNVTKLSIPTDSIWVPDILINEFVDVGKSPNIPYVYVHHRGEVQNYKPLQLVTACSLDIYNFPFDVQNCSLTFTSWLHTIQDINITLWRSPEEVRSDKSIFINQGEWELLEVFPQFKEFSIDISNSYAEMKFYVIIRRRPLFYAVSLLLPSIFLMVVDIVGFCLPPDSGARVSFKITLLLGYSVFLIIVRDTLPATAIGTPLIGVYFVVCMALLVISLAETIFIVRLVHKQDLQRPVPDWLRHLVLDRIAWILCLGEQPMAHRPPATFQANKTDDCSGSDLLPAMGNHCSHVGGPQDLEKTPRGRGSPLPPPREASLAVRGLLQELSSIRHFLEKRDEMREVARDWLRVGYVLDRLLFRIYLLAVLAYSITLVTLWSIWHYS

[2] = molecular target: T2, E213Q mutant 5-HT3 receptor (Mus musculus, UniProt P23979, E213Q); assay: Whole-cell patch-clamp, 5-HT dose-response, E213Q mutant in HEK 293 cells; format: cell-based; settings: for Hill slope: E213Q, no added MgCl2
T2 sequence (P23979 24-489 E213Q): T1 sequence (P23979 24-489 E277A/S297R) with E190Q, A254E, R274S

[3] = molecular target: T3, V219L mutant 5-HT3 receptor (Mus musculus, UniProt P23979, V219L); assay: Whole-cell patch-clamp, V219L mutant in HEK 293 cells; format: cell-based; settings: 1 mM 5-HT, n > 50
T3 sequence (P23979 24-489 V219L): T1 sequence (P23979 24-489 E277A/S297R) with V196L, A254E, R274S

[4] = molecular target: T4, E215Q mutant 5-HT3 receptor (Mus musculus, UniProt P23979, E215Q); settings: no added MgCl2
T4 sequence (P23979 24-489 E215Q): T1 sequence (P23979 24-489 E277A/S297R) with E192Q, A254E, R274S

[5] = molecular target: T5, D204N mutant 5-HT3 receptor (Mus musculus, UniProt P23979, D204N); assay: Whole-cell patch-clamp, D204N mutant in HEK 293 cells; format: cell-based; settings: 1 mM 5-HT, n > 50
T5 sequence (P23979 24-489 D204N): T1 sequence (P23979 24-489 E277A/S297R) with D181N, A254E, R274S

[6] = molecular target: T6, wild type 5-HT3 receptors (Mus musculus, UniProt P23979)
T6 sequence (P23979 24-489): T1 sequence (P23979 24-489 E277A/S297R) with A254E, R274S

[7] = molecular target: T7, E218Q mutant 5-HT3 receptor (Mus musculus, UniProt P23979, E218Q); format: cell-based; settings: 1 mM 5-HT, n > 50
T7 sequence (P23979 24-489 E218Q): T1 sequence (P23979 24-489 E277A/S297R) with E195Q, A254E, R274S

Question: What does the source list for `NCCc1c[nH]c2ccc(O)cc12` [5-HT, 5-hydroxytryptamine]?
Answer: Hill slope ([1]; Ext. Ca2+ 0 mM): 2.04 ± 0.16; Hill slope ([1]; Ext. Ca2+ 1 mM): 1.64 ± 0.25; Hill slope ([1]; Ext. Ca2+ 3 mM): 1.62 ± 0.30; I/I max ([1]; Ext. Ca2+ 3 mM): 0.99 ± 0.03; Hill slope ([1]; Ext. Ca2+ 10 mM): 1.35 ± 0.18; I/I max ([1]; Ext. Ca2+ 10 mM): 0.96 ± 0.02; rates of desensitisation, faster than wild type responses ([2]; E213Q versus wild type): ~4 fold; Hill slope ([2]; Ext. Ca2+ 0 mM): 2.45 ± 0.22; Hill slope ([2]; Ext. Ca2+ 1 mM): 2.39 ± 0.16; Hill slope ([2]; Ext. Ca2+ 3 mM): 2.42 ± 0.16; Hill slope ([2]; Ext. Ca2+ 10 mM): 1.62 ± 0.19; current response to 5-HT [3]: unable to elicit a response; Hill slope ([4]; Ext. Ca2+ 0 mM): 2.98 ± 0.11; Hill slope ([4]; Ext. Ca2+ 1 mM): 3.09 ± 0.39; Hill slope ([4]; Ext. Ca2+ 3 mM): 2.54 ± 0.19; Hill slope ([4]; Ext. Ca2+ 10 mM): 1.90 ± 0.24; current response to 5-HT [5]: unable to elicit a response; Hill slope ([6]; Ext. Ca2+ 0 mM, no added MgCl2): 2.39 ± 0.18; Hill slope ([6]; Ext. Ca2+ 1 mM, no added MgCl2): 2.24 ± 0.19; Hill slope ([6]; Ext. Ca2+ 3 mM, no added MgCl2): 2.08 ± 0.19; Hill slope ([6]; Ext. Ca2+ 10 mM, no added MgCl2): 2.08 ± 0.26; Hill slope ([6]; physiological conditions (1.0 mM CaCl2, 1.0 mM MgCl2), n = 23): 2.31 ± 0.25; current response to 5-HT [7]: unable to elicit a response
